The record followed here is patent US10626368B2, “Method for inducing cerebral cortex neurons” (KYOTO UNIVERSITY, priority 2015, dated 2020).

Format in all cases: cell-based, human
Data set [1] concerns ES cells or the iPS cells. Description: Immunostaining for CoupTF1 and Ctip2 after 46 days of cerebral cortex differentiation. The text has this:
(§1) Human ES cells (KhES-1) were obtained from Institute for Frontier Medical Sciences, Kyoto University (Suemori H, et al. Biochem Biophys Res Commun. 345: 926-32, 2006). The human iPS cells 404C2 are cells obtained by introducing Oct3/4, Sox2, Klf4, L-MYC, LIN28 and p53shRNA into human fibroblasts, using an episomal vector, and these cells were obtained from Professor Yamanaka et al. in Kyoto University (Okita, et al, Nat Methods. 8: 409-412, 2011). The human iPS cells 836B1 are cells obtained by introducing Oct3/4, Sox2, Klf4, L-MYC, LIN28, GLIS1 and p53shRNA into human fibroblasts, using an episomal vector, and these cells were obtained from Professor Yamanaka et al. in Kyoto University. The ES cells and the iPS cells were cultured on SNL cells (Takahashi K, et al, Cell. 131: 861-872, 2007).
On the day before induction of differentiation, in order to separate the ES cells or the iPS cells, which had been cultured in a culture medium to which 10 μM Y-27632 (WAKO) had been added, from the SNL feeder cells, the SNL cells were removed with CTK and the remaining cells were then dissociated using Accumax (ICT). The cells were transferred on a 96-well plate (Lipidure-coat 96-well plate (NOF Corporation)) in an amount of 9×10^3 cells per well. Thereafter, the cells were subjected to a suspension culture in DMEM/F12 (WAKO) comprising 50 μM Y-27632 (WAKO), 10 μM SB43152 (Sigma), 10 ng/ml bFGF (Invitrogen), various types of Wnt inhibitors (DKK1 (R & D, 500 ng/ml), C59 (Cellagen Technology, 2-10 nM), XAV (Stemgent, 500 nM-2 μM) or IWP4 (Stemgent, 500 nM-2.5 μM)), LDN193189 (Stemgent), KSR (Invitrogen), 0.1 mM MEM non-essential amino acid (Invitrogen), 0.1 mM 2-mercaptoethanol (WAKO), and 2 mM L-Gln (Invitrogen) (initiation of differentiation induction, day 0). […]
The concentration of LDN193189 used in the above-described induction method was examined. […] Furthermore, the expression levels of the CoupTF1 and Sfrp1 genes were measured according to a qPCR method (FIG. 5C). […]

Data set [2] has as its system ES cells or the iPS cells. Kind of data set: qPCR of marker gene expression in cells differentiated with added inhibitors.
Source text: as §1
On the day before induction of differentiation, in order to separate the ES cells or the iPS cells, which had been cultured in a culture medium to which 10 μM Y-27632 (WAKO) had been added, from the SNL feeder cells, the SNL cells were removed with CTK and the remaining cells were then dissociated using Accumax (ICT). The cells were transferred on a 96-well plate (Lipidure-coat 96-well plate (NOF Corporation)) in an amount of 9×10^3 cells per well. Thereafter, the cells were subjected to a suspension culture in DMEM/F12 (WAKO) comprising 50 μM Y-27632 (WAKO), 10 μM SB43152 (Sigma), 10 ng/ml bFGF (Invitrogen), various types of Wnt inhibitors (DKK1 (R & D, 500 ng/ml), C59 (Cellagen Technology, 2-10 nM), XAV (Stemgent, 500 nM-2 μM) or IWP4 (Stemgent, 500 nM-2.5 μM)), LDN193189 (Stemgent), KSR (Invitrogen), 0.1 mM MEM non-essential amino acid (Invitrogen), 0.1 mM 2-mercaptoethanol (WAKO), and 2 mM L-Gln (Invitrogen) (initiation of differentiation induction, day 0). […] Three days later, the medium was exchanged with DMEM/F12 (WAKO) comprising various types of Wnt inhibitors (DKK1, C59, XAV or IWP4 (Stemgent)), LDN193189 (Stemgent), KSR (Invitrogen), 0.1 mM MEM non-essential amino acid (Invitrogen), 0.1 mM 2-mercaptoethanol (WAKO), and 2 mM L-Gln (Invitrogen) (day 6). Thereafter, the medium was exchanged with a fresh one of the same type every 3 days, and the culture was carried out for 18 days after the initiation of differentiation induction (day 18).
The obtained cell mass was transferred on a dish (24-well plate (BD)) coated with 50 μg/ml ornithine (Sigma), 5 μg/ml laminin (Sigma) and 5 μg/ml fibronectin (BD Bioscience Pharmingen), and the culture was continued in Neurobasal (Invitrogen), to which B27 (Invitrogen), 2 mM L-Gln, and 10 units/ml penicillin and streptomycin (Invitrogen) had been added. The culture was carried out for, at maximum, 46 days after the initiation of differentiation induction. It is to be noted that the medium was exchanged with a fresh one every 2 or 3 days.
In the above-described induction method, 500 ng/ml DKK1, 2 nM C59, 500 nM XAV or 500 nM IWP4 was added as a Wnt inhibitor to the cells, and the obtained mixture was then cultured for 18 days. Thereafter, the expression levels of Six3 (forebrain marker), Sox1 (neuroectodermal marker), Foxg1 (cerebral cortex-forming factor), Lhx2 (cerebral cortex-forming factor), Emx2 (forebrain back portion marker), CoupTF1 (forebrain back portion marker) and Pax6 (forebrain front portion marker) genes in the cultured cells were measured by a qPCR method (FIG. 2).
The concentration of C59 used as a Wnt inhibitor in the above-described induction method was examined. Specifically, without using C59, or using 2.5 nM, 10 nM and 1 μM C59, the cells were cultured for 18 days. […] The obtained spheres were subjected to immunostaining of using an antibody against Pax6. […] Furthermore, the expression levels of the Foxg1, Lhx2, Emx2 and CoupTF1 genes in the obtained spheres were measured according to a qPCR method (FIG. 4B). As a result, the expression level of CoupTF1 was low and the expression levels of Lhx2 and Foxg1 were high in the case of using 10 nM C59. […]

Data set [3] concerns ES cells or the iPS cells. Kind of data set: Cell death / cytotoxicity in spheres on the 18th day of the culture. Particulars: 2 μM LDN193189, 18th day of the culture.
Description: On the day before induction of differentiation, in order to separate the ES cells or the iPS cells, which had been cultured in a culture medium to which 10 μM Y-27632 (WAKO) had been added, from the SNL feeder cells, the SNL cells were removed with CTK and the remaining cells were then dissociated using Accumax (ICT). The cells were transferred on a 96-well plate (Lipidure-coat 96-well plate (NOF Corporation)) in an amount of 9×10^3 cells per well. Thereafter, the cells were subjected to a suspension culture in DMEM/F12 (WAKO) comprising 50 μM Y-27632 (WAKO), 10 μM SB43152 (Sigma), 10 ng/ml bFGF (Invitrogen), various types of Wnt inhibitors (DKK1 (R & D, 500 ng/ml), C59 (Cellagen Technology, 2-10 nM), XAV (Stemgent, 500 nM-2 μM) or IWP4 (Stemgent, 500 nM-2.5 μM)), LDN193189 (Stemgent), KSR (Invitrogen), 0.1 mM MEM non-essential amino acid (Invitrogen), 0.1 mM 2-mercaptoethanol (WAKO), and 2 mM L-Gln (Invitrogen) (initiation of differentiation induction, day 0). […] Three days later, the medium was exchanged with DMEM/F12 (WAKO) comprising various types of Wnt inhibitors (DKK1, C59, XAV or IWP4 (Stemgent)), LDN193189 (Stemgent), KSR (Invitrogen), 0.1 mM MEM non-essential amino acid (Invitrogen), 0.1 mM 2-mercaptoethanol (WAKO), and 2 mM L-Gln (Invitrogen) (day 6). […]
The subject of a further data set is iPS cells (836B1). Kind of data set: Immunostaining for CoupTF1 and Ctip2 on day 46, suspension culture with various WNT inhibitors (Example 4). Conditions: 50 nM C59, 100 nM LGK-974, 1 μM ICG-001, day 46; C59 and LGK-974 compared with each other. The protocol:
On the day before induction of differentiation, in order to separate the iPS cells (836B1), which had been cultured in a culture medium to which 10 μM Y-27632 had been added, from the SNL feeder cells, the SNL cells were removed with CTK and the remaining cells were then dissociated using Accumax. The cells were transferred on a 96-well plate (Lipidure-coat 96-well plate) in an amount of 9×10^3 cells per well. Thereafter, the cells were subjected to a suspension culture in DMEM/F12 comprising 50 μM Y-27632, 10 μM SB43152, 10 ng/ml bFGF, various types of Wnt inhibitors (50 nM C59, 100 nM LGK-974, or 1 μM ICG-001 (Cellagen Technology)), 100 nM LDN193189, 10% KSR, 0.1 mM MEM non-essential amino acid, 0.1 mM 2-mercaptoethanol, and 2 mM L-Gln (initiation of differentiation induction, day 0). […] Three days later, the medium was exchanged with DMEM/F12 comprising various types of WNT inhibitors (C59, LGK-974, or ICG-001), 100 nM LDN193189, 10% KSR, 0.1 mM MEM non-essential amino acid, 0.1 mM 2-mercaptoethanol, and 2 mM L-Gln (day 6). Thereafter, the medium was exchanged with a fresh one of the same type every 3 days, and the culture was carried out for 18 days after the initiation of differentiation induction (day 18).
A half of the medium on day 18 was removed by aspiration, and thereafter, Neurobasal, to which B27, 2 mM L-Gln, and 10 units/ml penicillin and streptomycin had been added, was added in the same amount as the removed medium to the remaining medium. Likewise, a half amount of the medium was exchanged on day 21. On day 24, the cells were transferred on a petri dish, and thereafter, a half of the medium was exchanged every 3 or 4 days. On day 46, the obtained cells were immunostained using antibodies against CoupTF1 and Ctip2. […] From the aforementioned results, it was confirmed that nerve cells existing in the desired corticocerebral motor area can be induced even by utilizing the WNT inhibitor LGK-974 having a similar action to C59.

The mark [4] stands for this setting: 0.1 μM, 0.5 μM and 2 μM LDN193189, 46 days, qPCR, in a concentration-dependent manner.
Where [5] appears, read: 500 ng/ml DKK1 as Wnt inhibitor, cultured for 18 days, qPCR.

As for SB431542, the “CoupTF1-negative Ctip2-positive cells” value in data set [1] (10 μM SB43152 as TGFβ inhibitor, 46 days) was “obtained”.
In the case of `c1ccc2c(-c3cnn4cc(-c5ccc(N6CCNCC6)cc5)cnc34)ccnc2c1` [LDN193189, 4-(6-(4-(piperazin-1-yl)phenyl)pyrazolo [1,5-a]pyrimidin-3-yl)quinoline], in data set [2] (setting [4]), the “expression level of CoupTF1” value is listed as “low” and the “expression level of Sfrp1” value is listed as “high”. In addition, in data set [3], the “cell death in spheres” value was “cell death was often found” and the cytotoxicity entry is given as “strongly appeared”. The “CoupTF1-negative Ctip2-positive cells” value in data set [1] (0.1 μM, 0.5 μM and 2 μM LDN193189, 46 days) is on record as “obtained in a concentration-dependent manner”.
In the case of `Cc1cc(-c2ncc(CC(=O)Nc3ccc(-c4cnccn4)cn3)cc2C)ccn1` [LGK-974], the “efficiency of inducing CoupTF1-negative Ctip2-positive cells” value in the data set with iPS cells (836B1) was “not found a large difference”.
`O=C1[C@H](Cc2ccc(O)cc2)N2C(=O)CCN(C(=O)NCc3ccccc3)[C@H]2CN1Cc1cccc2ccccc12` [ICG-001]: the “efficiency of inducing CoupTF1-negative Ctip2-positive cells” value with iPS cells (836B1) was “significantly low”.

B1: DKK1: DKK1 protein, Wnt inhibitor (human NCBI Accession No. NM_012242), R & D (protein, UniProt O94907 32-266, looked up)
Dickkopf-related protein 1: TLNSVLNSNAIKNLPPPLGGAAGHPGSAVSAAPGILYPGGNKYQTIDNYQPYPCAEDEECGTDEYCASPTRGGDAGVQICLACRKRRKRCMRHAMCCPGNYCKNGICVSSDQNHFRGEIEETITESFGNDHSTLDGYSRRTTLSSKMYHTKGQEGSVCLRSSDCASGLCCARHFWSKICKPVLKEGQVCTKHRRKGSHGLEIFQRCYCGEGLSCRIQKDHHQASNSSRLHTCQRH
Turning to B1, the “cells in the back portion of the forebrain induced” value in data set [2] (500 ng/ml DKK1 as Wnt inhibitor, cultured for 18 days) is given as “a large number”. In data set [2] (setting [5]), the “expression level of CoupTF1 (forebrain back portion marker)” value was “high” and the “expression level of Emx2 (forebrain back portion marker)” value was “high”.
